System: maternal HIV+ sera (antibodies)
Assay: RIA / ELISA binding of maternal HIV+ sera to gp120 and gp41 peptides (Example 3)
Parameters: species or system human
Method: Radioimmunoassay (RIA) and enzyme-linked immunosorbent assay (ELISA) were performed by standard methodologies [E. Engvall, Meth. Immunol., 70:419-439 (1980); S. K. Pierce et al, J. Exp. Med., 144:1254-1262 (1976)]. Peptides were dissolved in 0.05M carbonate-bicarbonate buffer (pH 9.6) at a concentration of 10 μg/ml. Fifty μl (500 ng) of the peptides were immobilized in 96 well polyvinylchloride plates (Dynatech Laboratories, Inc.) overnight at 4° C. Plates were washed and non-specific sites were blocked with PBS containing 1% BSA overnight at 4° C.
Dilutions of HIV positive maternal sera were made in blocking buffer at dilutions of 1:50 and 1:500 and incubated in peptide coated plates overnight at 4° C. Plates were washed with PBS and incubated with 75,000 cpm of ^125 I-labelled goat anti-human IgG. The antibody was iodinated by a chloramine T method [W. V. Williams et al, Proc. Natl. Acad. Sci. USA, 85:6488-6492 (1988)]. Plates were washed, dried and counted in a gamma counter to measure specific binding. Normal human serum (i.e., HIV seronegative) was used as a control.
Alternatively, ELISA assays were performed in polystyrene plates (Dynatech Laboratories, Inc) in which 0.05% Tween 20 (Sigma Chemical Co.) was included in the washing, blocking and dilution buffers. The secondary antibody used was goat […] Ig conjugated to horseradish peroxidase (HRP) (Sigma Chemical Co). The substrate used for color development was 3,3',5,5' tetramethyl-benzidine dihydrochloride (TMB) (Sigma Chemical Co). Absorbance of samples was measured in a Dynatech MR5000 (Dynatech Laboratories, Inc.) plate reader and expressed as an optical density at wavelength of 450 nm (OD450).
The following key is used for the designation of specific binding of the maternal sera samples to the peptides: The minus sign, -, is equivalent to the specific OD450 or cpm of sera sample binding to peptide divided by the specific OD450 or cpm of NHS sample binding to peptide, which value is less than 2. The plus sign, +, is equivalent to the specific OD450 or cpm of sera sample binding to peptide divided by the specific OD450 or cpm of NHS sample binding to peptide, which value is between 2 to 3.
Specific binding is defined as the difference between the OD450 or cpm of sera to wells with peptide and the OD450 or cpm of sera to wells without peptide.
Comparisons of number of peptides which bound maternal serum samples were made between the transmission group and the nontransmission group. The data was analyzed using the unpaired student's test. For the determination of differences in the binding of specific peptides between transmission and non-transmission groups, the Spearman's rank-order correlation test was performed.

[1] = Serum No. 1, Non-Transmission Group
[2] = Serum No. 2, Non-Transmission Group
[3] = Serum No. 3, Non-Transmission Group
[4] = Serum No. 4, Transmission Group
[5] = Serum No. 5, Transmission Group
[6] = Serum No. 6, Non-Transmission Group
[7] = Serum No. 7, Non-Transmission Group
[8] = Serum No. 8, Non-Transmission Group
[9] = Serum No. 9, Non-Transmission Group
[10] = Serum No. 10, Transmission Group
[11] = Serum No. 11, Non-Transmission Group
[12] = Serum No. 12, Non-Transmission Group
[13] = Serum No. 13, Transmission Group
[14] = Serum No. 14, Transmission Group
[15] = Serum No. 15, Transmission Group
[16] = Serum No. 16, Non-Transmission Group
[17] = Serum No. 17, Non-Transmission Group
[18] = Serum No. 18, Non-Transmission Group
[19] = Serum No. 19, Transmission Group
[20] = Serum No. 20, Non-Transmission Group

| Sequence | Binding of maternal HIV+ serum to peptide (sera/NHS ratio) [1] | Binding of maternal HIV+ serum to peptide (sera/NHS ratio) [2] | Binding of maternal HIV+ serum to peptide (sera/NHS ratio) [3] | Binding of maternal HIV+ serum to peptide (sera/NHS ratio) [4] | Binding of maternal HIV+ serum to peptide (sera/NHS ratio) [5] | Binding of maternal HIV+ serum to peptide (sera/NHS ratio) [6] | Binding of maternal HIV+ serum to peptide (sera/NHS ratio) [7] | Binding of maternal HIV+ serum to peptide (sera/NHS ratio) [8] | Binding of maternal HIV+ serum to peptide (sera/NHS ratio) [9] | Binding of maternal HIV+ serum to peptide (sera/NHS ratio) [10] | Binding of maternal HIV+ serum to peptide (sera/NHS ratio) [11] | Binding of maternal HIV+ serum to peptide (sera/NHS ratio) [12] | Binding of maternal HIV+ serum to peptide (sera/NHS ratio) [13] | Binding of maternal HIV+ serum to peptide (sera/NHS ratio) [14] | Binding of maternal HIV+ serum to peptide (sera/NHS ratio) [15] | Binding of maternal HIV+ serum to peptide (sera/NHS ratio) [16] | Binding of maternal HIV+ serum to peptide (sera/NHS ratio) [17] | Binding of maternal HIV+ serum to peptide (sera/NHS ratio) [18] | Binding of maternal HIV+ serum to peptide (sera/NHS ratio) [19] | Binding of maternal HIV+ serum to peptide (sera/NHS ratio) [20] | further results |
| --- | --- | --- | --- | --- | --- | --- | --- | --- | --- | --- | --- | --- | --- | --- | --- | --- | --- | --- | --- | --- | --- |
| KQFINMWQEVGKAMYAPP [Peptide B138] | + (which value is between 2 to 3) | + (which value is between 2 to 3) | - (specific OD450 or cpm of sera sample binding to peptide divided by the specific OD450 or cpm of NHS sample binding to peptide, which value is less than 2) | + (which value is between 2 to 3) | + (which value is between 2 to 3) | + (which value is between 2 to 3) | ++ (which value is greater than 3) | ++ (which value is greater than 3) | - (specific OD450 or cpm of sera sample binding to peptide divided by the specific OD450 or cpm of NHS sample binding to peptide, which value is less than 2) | - (specific OD450 or cpm of sera sample binding to peptide divided by the specific OD450 or cpm of NHS sample binding to peptide, which value is less than 2) | - (specific OD450 or cpm of sera sample binding to peptide divided by the specific OD450 or cpm of NHS sample binding to peptide, which value is less than 2) | - (specific OD450 or cpm of sera sample binding to peptide divided by the specific OD450 or cpm of NHS sample binding to peptide, which value is less than 2) | - (specific OD450 or cpm of sera sample binding to peptide divided by the specific OD450 or cpm of NHS sample binding to peptide, which value is less than 2) | - (specific OD450 or cpm of sera sample binding to peptide divided by the specific OD450 or cpm of NHS sample binding to peptide, which value is less than 2) | - (specific OD450 or cpm of sera sample binding to peptide divided by the specific OD450 or cpm of NHS sample binding to peptide, which value is less than 2) | - (specific OD450 or cpm of sera sample binding to peptide divided by the specific OD450 or cpm of NHS sample binding to peptide, which value is less than 2) | - (specific OD450 or cpm of sera sample binding to peptide divided by the specific OD450 or cpm of NHS sample binding to peptide, which value is less than 2) | - (specific OD450 or cpm of sera sample binding to peptide divided by the specific OD450 or cpm of NHS sample binding to peptide, which value is less than 2) | - (specific OD450 or cpm of sera sample binding to peptide divided by the specific OD450 or cpm of NHS sample binding to peptide, which value is less than 2) | - (specific OD450 or cpm of sera sample binding to peptide divided by the specific OD450 or cpm of NHS sample binding to peptide, which value is less than 2) | Number of maternal sera binding to peptide (20 maternal sera): Seven; Number of binding maternal sera from the transmission group (vertical transmission group (7 sera)): two |
| CTRPNNNTRKSIRIQ [Peptide 106] | - (specific OD450 or cpm of sera sample binding to peptide divided by the specific OD450 or cpm of NHS sample binding to peptide, which value is less than 2) | - (specific OD450 or cpm of sera sample binding to peptide divided by the specific OD450 or cpm of NHS sample binding to peptide, which value is less than 2) | - (specific OD450 or cpm of sera sample binding to peptide divided by the specific OD450 or cpm of NHS sample binding to peptide, which value is less than 2) | - (specific OD450 or cpm of sera sample binding to peptide divided by the specific OD450 or cpm of NHS sample binding to peptide, which value is less than 2) | - (specific OD450 or cpm of sera sample binding to peptide divided by the specific OD450 or cpm of NHS sample binding to peptide, which value is less than 2) | - (specific OD450 or cpm of sera sample binding to peptide divided by the specific OD450 or cpm of NHS sample binding to peptide, which value is less than 2) | - (specific OD450 or cpm of sera sample binding to peptide divided by the specific OD450 or cpm of NHS sample binding to peptide, which value is less than 2) | - (specific OD450 or cpm of sera sample binding to peptide divided by the specific OD450 or cpm of NHS sample binding to peptide, which value is less than 2) | - (specific OD450 or cpm of sera sample binding to peptide divided by the specific OD450 or cpm of NHS sample binding to peptide, which value is less than 2) | - (specific OD450 or cpm of sera sample binding to peptide divided by the specific OD450 or cpm of NHS sample binding to peptide, which value is less than 2) | - (specific OD450 or cpm of sera sample binding to peptide divided by the specific OD450 or cpm of NHS sample binding to peptide, which value is less than 2) | - (specific OD450 or cpm of sera sample binding to peptide divided by the specific OD450 or cpm of NHS sample binding to peptide, which value is less than 2) | ++ (which value is greater than 3) | ++ (which value is greater than 3) | ++ (which value is greater than 3) | + (which value is between 2 to 3) | ++ (which value is greater than 3) | - (specific OD450 or cpm of sera sample binding to peptide divided by the specific OD450 or cpm of NHS sample binding to peptide, which value is less than 2) | - (specific OD450 or cpm of sera sample binding to peptide divided by the specific OD450 or cpm of NHS sample binding to peptide, which value is less than 2) | + (which value is between 2 to 3) | Percentage of sera samples demonstrating binding to peptide, non-transmitter (Non-transmitter group, n = 13): 23.0%; Percentage of sera samples demonstrating binding to peptide, transmitter (Transmitter / transmission group, n = 7): 42.9%; Percent of the maternal serum samples that bound to the peptide (all 20 samples): 30% |

From patent publication US5556744A, “Methods and compositions for diagnosing and treating certain HIV infected patients” (The Trustees of the University of Pennsylvania, priority 1994, dated 1996)
